In patent US20040096951A1, “Crystal structures of retaining glycosytransferases” (priority 2003, published 2004):
pKi: −log10 of the molar value. Structures can show the parent of a compound that is named as a salt.

Experiments:
[1] = target: T1, LgtC (Neisseria meningitidis, UniProt Q93EK7); assay: biochemical; format: biochemical; settings: for Function as a substrate for LgtC (transfer): galactosyl β-1,6-lactose incubated in the presence of UDP plus the usual buffer components
T1 construct: a deletion mutant of LgtC missing the C-terminal 25 residues; made in house; host or cells: E. coli (AD202)
Method: (§1) Synthesis of UDP-2Fgal was achieved essentially as described previously (ref. 19). Syntheses of 4′-deoxylactose, 6′-deoxylactose and galactosyl β-1,6-lactose will be described elsewhere. Kinetic studies were performed at 30° C. in 20 mM HEPES, pH 7.5 containing 0.1% bovine serum albumin, 50 mM KCl, 5 mM MnCl2 and 5 mM DTT. […] The change in absorbance was measured by means of a UNICAM 8700 UV-Vis spectrophotometer equipped with a circulating water bath. Kinetic parameters were calculated by direct fit of the initial rates to the respective equations using Grafit version 3.0 (ref.43).

[2] = system: two other galactosyltransferases; settings: shown previously; cited from earlier work
[3] = target: T2, LgtC (Neisseria meningitidis, UniProt Q93EK7, Q189A); assay: biochemical; format: biochemical; settings: Q189A mutant; added reagent
T2 construct: a deletion mutant of LgtC missing the C-terminal 25 residues; made in house; host or cells: E. coli (AD202)
Method: as §1

[4] = system: OC[C@H]1O[C@@H](O[C@H]2[C@H](O)[C@@H](O)C(O)O[C@@H]2CO)[C@H](O)[C@@H](O)[C@H]1O; assay: purified protein, by the assay type; format: biochemical, Neisseria meningitidis; settings: other: LgtC wild type; acceptor substrate; pH 7.5; 30.0 °C

T2 sequence (Q93EK7 1-286 Q189A): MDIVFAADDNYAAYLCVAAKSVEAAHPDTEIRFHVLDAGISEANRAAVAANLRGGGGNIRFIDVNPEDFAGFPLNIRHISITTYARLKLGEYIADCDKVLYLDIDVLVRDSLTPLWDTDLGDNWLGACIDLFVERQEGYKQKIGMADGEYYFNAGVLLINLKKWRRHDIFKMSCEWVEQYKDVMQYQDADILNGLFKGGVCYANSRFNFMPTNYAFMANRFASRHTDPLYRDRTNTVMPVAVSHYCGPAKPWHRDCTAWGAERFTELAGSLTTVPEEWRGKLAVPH
T1 sequence (Q93EK7 entry or part of it): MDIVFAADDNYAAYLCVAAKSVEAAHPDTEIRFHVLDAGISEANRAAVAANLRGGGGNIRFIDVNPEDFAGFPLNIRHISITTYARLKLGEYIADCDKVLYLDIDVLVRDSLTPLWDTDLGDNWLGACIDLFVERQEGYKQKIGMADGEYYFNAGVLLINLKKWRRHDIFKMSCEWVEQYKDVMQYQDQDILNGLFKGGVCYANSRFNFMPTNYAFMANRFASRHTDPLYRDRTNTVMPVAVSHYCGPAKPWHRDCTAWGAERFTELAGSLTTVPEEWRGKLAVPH

Row | Molecule | Function as a substrate for LgtC (transfer) ([1]; LgtC) | Rescue of activity of the Q189A mutant by added small molecules (rate increase) [3] | other results
1 | OC[C@@H]1C[C@H](O)[C@@H](O)[C@H](O[C@H]2[C@H](O)[C@@H](O)C(O)O[C@@H]2CO)O1 (some centres unmarked) [4-deoxylactose, 4′-Deoxylactose] | cannot function as a substrate |  | pKi [1]: 1.80
2 | C[C@H]1OC(O)[C@H](O)[C@@H](O)[C@@H]1O[C@@H]1O[C@H](CO)[C@H](O)[C@H](O)[C@H]1O (some centres unmarked) [6-deoxylactose] | shown not to function as a substrate |  | Action as an inhibitor of LgtC ([1]; LgtC): neither did it act as an inhibitor
3 | O=c1ccn([C@@H]2O[C@H](COP(=O)(O)OP(=O)(O)O[C@H]3O[C@H](CO)[C@H](O)[C@H](O)[C@H]3F)[C@@H](O)[C@H]2O)c(=O)[nH]1 [UDP-2FGal, Uridine 5′-diphospho-(2-deoxy-2-fluoro)-α-D-galactopyranose, di-ammonium Salt, reference compound] | no transfer occurs |  | pKi [1]: 5.70; Inhibition of other galactosyltransferases [2]: shown to inhibit
4 | CC(N)=O [acetamide] |  | No rate increases were observed | 
5 | CC(=O)O [acetate] |  | No rate increases were observed | 
6 | [N-]=[N+]=[N-] [azide] |  | No rate increases were observed | 
7 | NC=O [formamide] |  | No rate increases were observed | 
8 | O=CO [formate] |  | No rate increases were observed | 
9 | LgtC (Neisseria meningitidis) |  |  | Km [4]: 20 mM
10 | galactosyl β-1,6-lactose | does not function as a substrate |  | 
